{
  "source": "patent US20140378306A1",
  "about": "“USE OF 5-PHENYL- OR 5-BENZYL-2 ISOXAZOLINE-3 CARBOXYLATES FOR IMPROVING PLANT YIELD” (Bayer Intellectual Property GmbH, priority 2011, published 2014)",
  "key": {"sugarbeets [1]": {"system": "sugarbeets", "experiment": "Field trial: emergence of sugarbeets, seed treatment with isoxadifen", "type": "in vivo, sugarbeet", "conditions": "seed treatment 0.015 mg ai/seed", "excerpt": "(§1) The trials have been carried out under natural field conditions (plot trials, 10 square meter plots, 2-4 replications).\n(§2) The applications have been done with seed treatment, pre- or post-emergence treatments straight (alone, 1 application) or sequential treatments e.g. seed treatment followed by pre-emergence and/or post-emergence spray applications. The pre- or post-emergence applications were made with spray applications using 100-300 l/water per hectare. The growth stage of the crops species at the time of application are reported in the result tables. The dose rates of the herbicidal active ingredients applied alone respective in sequential application are also described in the result tables.\n(§3) The assessments have been done via visual ratings (0-100% scale) or counting. The trials have been harvested after crops reached the full maturity. After the harvest the total weight of kernels/seeds/beets per plot was measured. The results are reported as means over 2-4 replications. The time between applications and assessments or countings/harvest are described in the result tables as well.\n(§4) The active ingredients have been applied to the untreated, dry seeds together with a carrier. After a short period of time to let the seeds dry, they were ready to be sown in the pot or field using standard equipments."}, "winter oilseed rape": {"system": "winter oilseed rape", "experiment": "Field trial: grain yield effects on winter oilseed rape, sequential application of isoxadifen", "type": "in vivo", "excerpt": "as §1, §2, §3, §4"}, "winter wheat": {"system": "winter wheat", "experiment": "Field trial: grain yield effects on winter wheat, postemergence treatment with isoxadifen-ethyl", "type": "in vivo", "conditions": "84 days after application", "excerpt": "as §1, §2, §3"}, "spring wheat [2]": {"system": "spring wheat", "experiment": "Field trial: grain yield effects on spring wheat, postemergence treatment with isoxadifen-ethyl", "type": "in vivo", "conditions": "74 days after application", "excerpt": "as §1, §2, §3"}, "corn": {"system": "corn", "experiment": "Field trial: grain yield effect on corn, sequential treatment with isoxadifen-ethyl", "type": "in vivo", "excerpt": "as §1, §2, §3, §4"}, "spring wheat [3]": {"system": "spring wheat", "experiment": "Field trial: grain yield effects on spring wheat, seed treatment with isoxadifen-ethyl", "type": "in vivo", "conditions": "158 days after application", "excerpt": "as §1, §2, §3, §4"}, "sugarbeet": {"system": "sugarbeet", "experiment": "Field trial: yield effects on sugarbeet, sequential application of isoxadifen-ethyl", "type": "in vivo", "excerpt": "as §1, §2, §3, §4"}, "sugarbeets [4]": {"system": "sugarbeets", "experiment": "Field trial: sugar yield of sugarbeets, sequential application", "type": "in vivo, sugarbeet", "excerpt": "as §1, §2, §3, §4"}, "[5]": {"system": "spring oilseed rape (canola)", "experiment": "Field trial: grain yield effects on spring oilseed rape (canola), postemergence treatment with IDF-Et + TBC", "type": "in vivo", "conditions": "92 days after application", "excerpt": "The trials have been carried out under natural field conditions (plot trials, 10 square meter plots, 2-4 replications). The applications have been done with seed treatment, pre- or post-emergence treatments straight (alone, 1 application) or sequential treatments e.g. seed treatment followed by pre-emergence and/or post-emergence spray applications. The pre- or post-emergence applications were made with spray applications using 100-300 l/water per hectare. The growth stage of the crops species at the time of application are reported in the result tables. The dose rates of the herbicidal active ingredients applied alone respective in sequential application are also described in the result tables. The assessments have been done via visual ratings (0-100% scale) or counting. The trials have been harvested after crops reached the full maturity. After the harvest the total weight of kernels/seeds/beets per plot was measured. The results are reported as means over 2-4 replications. The time between applications and assessments or countings/harvest are described in the result tables as well."}, "[6]": {"conditions": "grain yield relative to UTC (100%), 100 g ai/ha post-emergence"}, "[7]": {"conditions": "grain yield, 100 g ai/ha post-emergence"}},
  "data": [
    {"compound": "O=C(O)C1=NOC(c2ccccc2)(c2ccccc2)C1", "note": "[IDF, 5,5-diphenyl-2-isoxazolinecarboxylic acid]", "values": [
      {"measurement": "plants/18 row meters", "setting": "sugarbeets [1]; emergence of sugarbeets, counting 28 days after planting", "value": 74, "unit": "plants/18 row meters"},
      {"measurement": "Relative", "setting": "sugarbeets [1]; emergence relative to UTC (100%), sugarbeets, 28 days after planting", "value": 113.8, "unit": "%"},
      {"measurement": "Difference(%) vs. UTC", "setting": "sugarbeets [1]; emergence, sugarbeets, 28 days after planting", "value": "+13.8%"},
      {"measurement": "Yield", "setting": "winter oilseed rape; 3 g ai/kg seed fb 3 × 50 g ai/ha post (4-6 leaves, stem elongation, beginning of flowering), grain yield at harvest, 102 days after application", "value": 2.63, "unit": "t/ha"},
      {"measurement": "Relative", "setting": "winter oilseed rape; grain yield relative to UTC (100%), 3 g ai/kg seed fb 3 × 50 g ai/ha post", "value": 105, "unit": "%"},
      {"measurement": "Difference(%) vs. UTC", "setting": "winter oilseed rape; grain yield, 3 g ai/kg seed fb 3 × 50 g ai/ha post", "value": "+5%"}
    ]},
    {"compound": "CCOC(=O)C1=NOC(c2ccccc2)(c2ccccc2)C1", "note": "[IDF-Et, ethyl 5,5-diphenyl-2-isoxazolinecarboxylate]", "values": [
      {"measurement": "Yield", "setting": "winter wheat; 100 g ai/ha post-emergence spring, beginning of stem elongation, grain yield at harvest", "value": 8.09, "unit": "t/ha"},
      {"measurement": "Relative %", "setting": "winter wheat; [6]", "value": 109.0, "unit": "%"},
      {"measurement": "Difference(%) vs. UTC", "setting": "winter wheat; [7]", "value": "+9%"},
      {"measurement": "Yield", "setting": "spring wheat [2]; 100 g ai/ha post-emergence spring, flag leaf/beginning of ear heading, grain yield at harvest", "value": 7.67, "unit": "t/ha"},
      {"measurement": "Relative %", "setting": "spring wheat [2]; [6]", "value": 113.2, "unit": "%"},
      {"measurement": "Difference(%) vs. UTC", "setting": "spring wheat [2]; [7]", "value": "+13.2%"},
      {"measurement": "Yield", "setting": "corn; 0.5 g ai/kg seed fb 3 × 50 g ai/ha post (2-4, 6-8, 10-12 leaves), grain yield at harvest, 72 days after application", "value": 10.80, "unit": "t/ha"},
      {"measurement": "Relative", "setting": "corn; grain yield relative to UTC (100%), 0.5 g ai/kg seed fb 3 × 50 g ai/ha post", "value": 124, "unit": "%"},
      {"measurement": "Difference(%) vs. UTC", "setting": "corn; grain yield, 0.5 g ai/kg seed fb 3 × 50 g ai/ha post", "value": "+24%"},
      {"measurement": "Relative %", "setting": "spring wheat [3]; grain yield relative to UTC (100%), seed treatment 0.5 g ai/kg seed", "value": 108.7, "unit": "%"},
      {"measurement": "Difference(%) vs. UTC", "setting": "spring wheat [3]; grain yield, seed treatment 0.5 g ai/kg seed", "value": "+8.7%"},
      {"measurement": "Yield", "setting": "spring wheat [3]; seed treatment 0.5 g ai/kg seed (prior planting), grain yield at harvest", "value": 6.58, "unit": "t/ha"},
      {"measurement": "Yield", "setting": "sugarbeet; 0.015 mg ai/seed fb 3 × 50 g ai/ha post (2-4, 6-8, 10-12 leaves), yield of beets by weight at harvest, 162 days after application", "value": 65.3, "unit": "t/ha"},
      {"measurement": "Relative", "setting": "sugarbeet; beet yield relative to UTC (100%), 0.015 mg ai/seed fb 3 × 50 g ai/ha post", "value": 111.2, "unit": "%"},
      {"measurement": "Difference(%) vs. UTC", "setting": "sugarbeet; beet yield, 0.015 mg ai/seed fb 3 × 50 g ai/ha post", "value": "+11.2%"},
      {"measurement": "Sugar Yield", "setting": "sugarbeets [4]; 0.015 mg ai/seed fb 3 × 50 g ai/ha post (2-4, 6-8, 10-12 leaves), sugar yield by weight at harvest, 162 days after application", "value": 6.19, "unit": "t/ha"},
      {"measurement": "Relative", "setting": "sugarbeets [4]; sugar yield relative to UTC (100%), 0.015 mg ai/seed fb 3 × 50 g ai/ha post", "value": 108.6, "unit": "%"},
      {"measurement": "Difference(%) vs. UTC", "setting": "sugarbeets [4]; sugar yield, 0.015 mg ai/seed fb 3 × 50 g ai/ha post", "value": "+8.6%"}
    ]},
    {"compound": "CC(C)(C)C(O)(CCc1ccc(Cl)cc1)Cn1cncn1", "note": "(stereo not drawn) [TBC, tebuconazole]", "values": [
      {"measurement": "Relative %", "setting": "[5]; grain yield relative to UTC (100%), canola, TBC 150, IDF-Et 100 g ai/ha", "value": 101.8, "unit": "%"},
      {"measurement": "Difference(%) vs. UTC", "setting": "[5]; grain yield, canola, TBC 150, IDF-Et 100 g ai/ha", "value": "+1.8%"},
      {"measurement": "Yield", "setting": "[5]; spring oilseed rape (canola), TBC 150 g ai/ha, IDF-Et 100 g ai/ha, post-emergence spring, beginning of flowering, grain yield at harvest", "value": 3.98, "unit": "t/ha"}
    ]}
  ]
}
